Data reported in patent US20250092065A1, “2-(INDAZOL-5-YL)-6-(PIPERIDIN-4-YL)-1,7-NAPHTHYRIDINE DERIVATIVES AND RELATED COMPOUNDS AS MODULATORS FOR SPLICING NUCLEIC ACIDS AND FOR THE TREATMENT OF PROLIFERATIVE DISEASES” (REMIX THERAPEUTICS INC., priority 2022, published 2025).
Read-outs that look alike come from different tables or passages of the source.

Experiments:
Type in all cases: cell-based, human
HTT mRNA = assay: RT-qPCR splicing assay, HTT mRNA canonical (CJ) and alternative (AJ) junction; details: Homo sapiens; for AC50: HTT alternative junction mRNA, read-out: HTT AJ (increase in AJ mRNA, AC50)
Outline: (§1)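 A673 or K562 cells treated 24 h at 37 °C with an 11-point 3-fold dilution series (top 10 uM, DMSO ≤0.25%). Lysates went directly to one-step RT-qPCR quantifying canonical (CJ) and alternative-exon (AJ) junctions, normalized to GAPDH, GUSB or PPIA. Values from ΔΔCt versus DMSO, RQ = 2^(−ΔΔCt), expressed as percentage response.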

SMN2 mRNA = assay: RT-qPCR splicing assay, SMN2 mRNA; details: Homo sapiens, canonical junction qPCR panel, Table 4; read-out: SMN2 IC50 (decrease in CJ mRNA levels)
Outline: as §1

MYB mRNA = assay: RT-qPCR splicing assay, MYB mRNA canonical (CJ) and alternative (AJ) junction; details: Homo sapiens; for AC50: MYB alternative junction mRNA, read-out: MYB AJ (increase in AJ mRNA, AC50)
Outline: as §1

[1] = HTT canonical junction mRNA, RT-qPCR, read-out: HTT CJ (decrease in CJ mRNA levels, IC50)
[2] = canonical junction qPCR panel, Table 4, read-out: HTT IC50 (decrease in CJ mRNA levels)
[3] = MYB canonical junction mRNA, RT-qPCR, read-out: MYB CJ (decrease in CJ mRNA levels, IC50)
[4] = canonical junction qPCR panel, Table 4, read-out: MYB IC50 (decrease in CJ mRNA levels)

| SMILES | AC50 (HTT mRNA; RT-qPCR) | IC50 (HTT mRNA; [1]) | IC50 (HTT mRNA; [2]) | IC50 (SMN2 mRNA) | AC50 (MYB mRNA; RT-qPCR) | IC50 (MYB mRNA; [3]) | IC50 (MYB mRNA; [4]) |
| --- | --- | --- | --- | --- | --- | --- | --- |
| C[C@H]1C[C@H](c2ccc3nc(-c4cc5cn(C)nc5c(F)c4O)ccc3n2)CCN1 (single isomer, unassigned) [Compound 356] | < 0.1 µM | < 0.1 µM | < 0.1 µM | < 0.1 µM | < 0.1 µM | < 0.1 µM | < 0.1 µM |
| Cc1c(O)c(-c2ccc3nc(N4CC[C@H](N[C@H]5C[C@H](F)C5)C4)ccc3n2)cc2cn(C)nc12 (single isomer, unassigned) [Compound 358] | < 0.1 µM | < 0.1 µM | < 0.1 µM | < 0.1 µM | < 0.1 µM | < 0.1 µM | < 0.1 µM |
| Cn1cc2cc(-c3ccc4nc(N5CC[C@@H](N)C5)ccc4n3)c(O)c(F)c2n1 (single isomer, unassigned) [Compound 362] | < 0.1 µM | < 0.1 µM | < 0.1 µM | < 0.1 µM | < 0.1 µM | < 0.1 µM | < 0.1 µM |
| CN[C@@H]1CCN(c2ccc3nc(-c4cc5cn(C)nc5c(C)c4O)ncc3n2)C1 (single isomer, unassigned) [Compound 368] | 0.1 to 1 µM | 0.1 to 1 µM | 0.1 to 1 µM | < 0.1 µM | < 0.1 µM | < 0.1 µM | < 0.1 µM |
| CN[C@H]1CCN(c2ccc3nc(-c4cc5cn(C)nc5c(C)c4O)ncc3n2)C1 (single isomer, unassigned) [Compound 369] | 0.1 to 1 µM | 0.1 to 1 µM | 0.1 to 1 µM | < 0.1 µM | 0.1 to 1 µM | 0.1 to 1 µM | 0.1 to 1 µM |
| Cc1nc2c(F)c(O)c(-c3ccc4nc(N5CC[C@H](NC6(CF)CC6)C5)ccc4n3)cc2o1 (single isomer, unassigned) [Compound 373] | < 0.1 µM | < 0.1 µM | < 0.1 µM | < 0.1 µM | < 0.1 µM | < 0.1 µM | < 0.1 µM |
| Cc1nc2c(C)c(O)c(-c3ccc4nc(N5CC[C@H](NC6(CF)CC6)C5)ccc4n3)cc2o1 (single isomer, unassigned) [Compound 378] | < 0.1 µM | < 0.1 µM | < 0.1 µM | < 0.1 µM | < 0.1 µM | < 0.1 µM | < 0.1 µM |
| Cc1nc2c(C)c(O)c(-c3ccc4nc(N5CC[C@@H](NC6(CF)CC6)C5)ccc4n3)cc2o1 (single isomer, unassigned) [Compound 379] | 0.1 to 1 µM | < 0.1 µM | < 0.1 µM | < 0.1 µM | 0.1 to 1 µM | 0.1 to 1 µM | 0.1 to 1 µM |
| Cn1cc2cc(-c3ncc4nc(N5CC[C@@H](N)C5)ccc4n3)c(O)c(F)c2n1 (single isomer, unassigned) [Compound 380] | 0.1 to 1 µM | < 0.1 µM | < 0.1 µM | < 0.1 µM | < 0.1 µM | < 0.1 µM | < 0.1 µM |
| C[C@H]1C[C@@H](c2ccc3nc(-c4cc5cn(C)nc5c(F)c4O)ccc3n2)CCN1 (single isomer, unassigned) [Compound 383] | < 0.1 µM | < 0.1 µM | < 0.1 µM | < 0.1 µM | < 0.1 µM | < 0.1 µM | < 0.1 µM |
| Cn1cc2cc(-c3ccc4nc(C5CCNC[C@H]5O)ccc4n3)c(O)cc2n1 (single isomer, unassigned) [Compound 386] | > 10 µM | > 10 µM | > 10 µM | < 0.1 µM | 1 to 10 µM | 0.1 to 1 µM | 0.1 to 1 µM |
| Cn1cc2cc(-c3ccc4nc(N5CC[C@@H](NC(C)(C)C)C5)ccc4n3)c(O)c(F)c2n1 (single isomer, unassigned) [Compound 391] | < 0.1 µM | < 0.1 µM | < 0.1 µM | < 0.1 µM | < 0.1 µM | < 0.1 µM | < 0.1 µM |
| Cn1cc2cc(-c3ccc4nc(N5CC[C@H](NC(C)(C)C)C5)ccc4n3)c(O)c(F)c2n1 (single isomer, unassigned) [Compound 392] | < 0.1 µM | < 0.1 µM | < 0.1 µM | < 0.1 µM | < 0.1 µM | < 0.1 µM | < 0.1 µM |
| Cc1c(O)c(-c2ncc3nc([C@@H]4CCNC4)ccc3n2)cc2cn(C)nc12 (single isomer, unassigned) [Compound 398] | 1 to 10 µM | 1 to 10 µM | 1 to 10 µM | < 0.1 µM | 1 to 10 µM | 1 to 10 µM | 1 to 10 µM |
| Cc1nc2c(C)c(O)c(-c3ccc4nc(N5CC[C@@H](NC6CC6)C5)ncc4n3)cc2o1 (single isomer, unassigned) [Compound 432] | < 0.1 µM | < 0.1 µM | < 0.1 µM | < 0.1 µM | 0.1 to 1 µM | < 0.1 µM | < 0.1 µM |
| Cc1nc2cc(O)c(-c3ccc4nc(N5CC[C@@H](NC6CC6)C5)ncc4n3)cc2o1 (single isomer, unassigned) [Compound 434] | < 0.1 µM | < 0.1 µM | < 0.1 µM | < 0.1 µM | 0.1 to 1 µM | 0.1 to 1 µM | 0.1 to 1 µM |
| Cc1nc2c(C)c(O)c(-c3ccc4cc(N5CC[C@@H](NC(C)(C)C)C5)ncc4n3)cc2o1 (single isomer, unassigned) [Compound 444] | 0.1 to 1 µM | < 0.1 µM | < 0.1 µM | < 0.1 µM | 0.1 to 1 µM | 0.1 to 1 µM | 0.1 to 1 µM |
| Cc1nc2c(C)c(O)c(-c3ccc4cc(N5CC[C@H](NC(C)(C)C)C5)ncc4n3)cc2o1 (single isomer, unassigned) [Compound 445] | 1 to 10 µM | 1 to 10 µM | 1 to 10 µM | 0.1 to 1 µM | 1 to 10 µM | 1 to 10 µM | 1 to 10 µM |
| Cc1nc2cc(O)c(-c3ccc4nc(N5CC[C@@H](NC6(CF)CC6)C5)ccc4n3)cc2o1 (single isomer, unassigned) [Compound 488] | < 0.1 µM | < 0.1 µM | < 0.1 µM | < 0.1 µM | < 0.1 µM | < 0.1 µM | < 0.1 µM |
| Cc1nc2cc(O)c(-c3ccc4nc(N5CC[C@H](NC6(CF)CC6)C5)ccc4n3)cc2o1 (single isomer, unassigned) [Compound 489] | < 0.1 µM | < 0.1 µM | < 0.1 µM | < 0.1 µM | < 0.1 µM | < 0.1 µM | < 0.1 µM |
| Cc1nc2c(F)c(O)c(-c3ccc4nc(N5CC[C@@H](NC6(CF)CC6)C5)ccc4n3)cc2o1 (single isomer, unassigned) [Compound 491] | < 0.1 µM | < 0.1 µM | < 0.1 µM | < 0.1 µM | < 0.1 µM | < 0.1 µM | < 0.1 µM |
| Cn1cc2cc(-c3ccc4nc(N5CCC(NC6(CF)CC6)C5)ccc4n3)c(O)c(F)c2n1 (stereo in doubt) [Compound 353, 7-fluoro-5-{6-[(3R)-3-{[1-(fluoromethyl)cyclopropyl]amino}pyrrolidin-1-yl]-1,5-naphthyridin-2-yl}-2-methylindazol-6-ol] | < 0.1 µM | < 0.1 µM | < 0.1 µM | < 0.1 µM | < 0.1 µM | < 0.1 µM | < 0.1 µM |
| Cn1cc2cc(-c3ccc4nc(N5CCC(NC6(CF)CC6)C5)ccc4n3)c(O)c(F)c2n1 (stereo in doubt) [Compound 357, 7-fluoro-5-{6-[(3S)-3-{[1-(fluoromethyl)cyclopropyl]amino}pyrrolidin-1-yl]-1,5-naphthyridin-2-yl}-2-methylindazol-6-ol] | < 0.1 µM | < 0.1 µM | < 0.1 µM | < 0.1 µM | < 0.1 µM | < 0.1 µM | < 0.1 µM |
| Cn1cc2cc(-c3ccc4nc(N5CCC(N)C5)ccc4n3)c(O)c(F)c2n1 (stereo in doubt) [Compound 363, 5-{6-[(3R)-3-aminopyrrolidin-1-yl]-1,5-naphthyridin-2-yl}-7-fluoro-2-methylindazol-6-ol] | < 0.1 µM | < 0.1 µM | < 0.1 µM | < 0.1 µM | < 0.1 µM | < 0.1 µM | < 0.1 µM |
| Cc1nc2c(F)c(O)c(-c3ccc4nc(N5CC[C@@H](N[C@H]6C[C@@H](F)C6)C5)ccc4n3)cc2o1 (stereo in doubt) [Compound 375] | < 0.1 µM | < 0.1 µM | < 0.1 µM | < 0.1 µM | < 0.1 µM | < 0.1 µM | < 0.1 µM |
| Cc1nc2c(C)c(O)c(-c3ccc4nc(N5CC[C@@H](N[C@H]6C[C@@H](F)C6)C5)ccc4n3)cc2o1 (stereo in doubt) [Compound 376] | 0.1 to 1 µM | < 0.1 µM | < 0.1 µM | < 0.1 µM | < 0.1 µM | < 0.1 µM | < 0.1 µM |
| Cc1nc2c(C)c(O)c(-c3ccc4nc(N5CC[C@H](N[C@H]6C[C@@H](F)C6)C5)ccc4n3)cc2o1 (stereo in doubt) [Compound 377] | < 0.1 µM | < 0.1 µM | < 0.1 µM | < 0.1 µM | < 0.1 µM | < 0.1 µM | < 0.1 µM |
